# Measured values: US20250144247A1, “FORMULATIONS TO ENHANCE THE DELIVERY OF GENE THERAPY VECTORS” (priority 2023, published 2025)
# Where two headings read alike, the source gives them in different places.
# Experiments:
# [1] = test system: human airway epithelial cells (HAE); type: cell-based; settings: for Ad gene transfer: imaged 5 days
# [2] = Osmolarity and pH of the solutions; type: physicochemical
# [3] = test system: CFTR anion transport in CF HAE; assay: Ussing chamber short circuit current and conductance of CF HAE; type: cell-based, human
# mouse airways = assay: Adenoviral transduction of mouse airways (Ad-luciferase, IVIS); type: in vivo, Balb/c mice; settings: Ad-luciferase intratracheal, 7% NaCl vs 0.9% NaCl, five days
# Experimental: 6-8-week-old Balb/c mice were sedated with ketamine/xylazine (87.5+2.5 mg/kg). Ad-CMV-firefly luciferase was delivered intratracheally with 1×10^9 TU formulated with NaCl (0.9% or 7% final) in a 50 ul volume. 5 days later mice were given intraperitoneal D-luciferin (50227, Millipore Sigma, St. Louis, MO) imaged for luminescence expression using the Xenogen IVIS-200.
# pig airways = assay: Viral gene transfer in pig airways; type: in vivo, newborn pigs
# Experimental: Newborn pigs were sedated using isoflurane and viral vector formulated with NaCl (0.9% or 5% final) and acrosolized 2 ml intratracheally using a MADgic Laryngo-Tracheal Mucosal Atomization Device (Teleflex, Morrisville, NC). Doses for each vector for each pig were as follows: 2.8×10^10 infectious genomic units (IGU) of helper-dependent Ad-CMV-GFP and 7×10^8 TU of GP64 HIV-CMV-GFP. Doses were prepared by mixing a 1.8% NaCl or 10% NaCl stock 1:1 with 1 ml of vector. 1 week later, pigs were humanely euthanized, and lungs were analyzed for GFP expression. Lungs were systematically divided and fixed in 4% paraformaldehyde, subjected to a sucrose gradient, and embedded in OCT for cryosectioning. Sectioned lung slides were mounted using DAPI and imaged using a Keyence All-in-one Fluorescence Microscope BZ-X series (Osaka, Japan).
# To determine cell types transduced in vivo, a pig model that more closely recapitulates the anatomy and cell biology of human airways was used. Newborn pigs received Ad-GFP via intratracheal delivery with 0.9% NaCl or 5% NaCl. Five days after delivery, lungs were collected and GFP expression was visualized under a fluorescence dissecting microscope (data not shown). Lungs were divided into 20 regions for systematic quantification as previously described (data not shown) and scored based on level of expression (0=no expression, 1=low expression, 2=moderate expression, and 3=high expression) (data not shown).
# [4] = test system: human airway epithelial cells (HAE); assay: AAV2.5T-GFP transduction of HAE; type: cell-based; settings: NaCl 4.5%, MOI=100,000 vg/cell, 2 hours, doxorubicin 1 μM pre-treatment, 2 weeks
# [5] = test system: human airway epithelial cells (HAE); assay: Transepithelial electrical resistance (TEER) of HAE after apical reagent; type: cell-based; settings: apical 5 minutes; LPC 0.1%, EGTA 250 mM, doxorubicin 5 μM, NaCl 3.6%, Infasurf 35 mg/ml
# Experimental: The University of Iowa In Vitro Models and Cell Culture Core cultured and maintained human airway epithelial cells (HAE) as previously described (33). Briefly, following enzymatic disassociation of trachea and bronchus epithelia, the cells were seeded onto collagen-coated, polycarbonate transwell inserts (0.4 μm pore size; surface area=0.33 cm^2; Corning Costar, Cambridge, MA). HAE were submerged in Ultroser G (USG) medium for 24 hours (37° C. and 5% CO2) at which point the apical media is removed to encourage polarization and differentiation at an air-liquid interface. Transepithelial electrical resistance was measured using an Ohmmeter […]
# Disrupting the epithelial tight junctions allows Ad5-based viral vectors access to their basolaterally localized coxsackie and adenovirus receptor (CXADR) (12). Unless otherwise specified, these studies use the Ad5 serotype. […] First, reagents were applied to the apical surface of HAE for 5 minutes and then TEER was measured using an ohmmeter. […] In separate cultures, Ad-GFP (MOI=250) in 50 μl of DMEM combined 1:1 with the test reagents was applied to the apical surface for 2 hours. 5 days post-treatment, cells were imaged by fluorescence microscopy.
# [6] = test system: human airway epithelial cells (HAE); assay: LDH release / integrity of HAE; type: cell-based
# Experimental: GFP images were acquired using a Keyence All-in-one Fluorescence Microscope BZ-X series (Osaka, Japan). 0.33 cm^2 Transwells were imaged at 2× magnification. GFP expression was quantified by flow cytometry as previously reported (36). Briefly, cells were stained with a fixable LIVE/DEAD stain (Thermo Fisher Scientific, Waltham, MA, USA), lifted in Accutase at 37° C. for 30 minutes, and run through an Attune NxT Flow Cytometer (Thermo Fisher Scientific, Waltham, MA, USA). Cells were treated with the Foxp3/Transcription Factor Staining Buffer Set (Thermo Fisher Scientific, Waltham, MA, USA) according to manufacturer's recommendations and stained for 1 hour at 37° C. with the following antibodies: NGFR (345110; 1:600, BioLegend, San Diego, CA, USA), α-tubulin (NB100-69AF405, 1:300, Novus, Centennial, CO, USA) and CD66c (12-0667-42, 1:600, Invitrogen, Waltham, MA). Expression was gated on live cells. Immunofluorescence staining of pig tissue sections was performed using acetylated α-tubulin (D20G3, 1:200, Cell Signaling Technology, Danvers, MA) or cytokeratin 5 (CK5) (Polyl9055, 1:500, San Diego, CA). Primary antibodies were detected using a goat anti-rabbit Alexa 546 secondary anti-body (A-11035, 1:600, Thermo Fisher Scientific, Waltham, MA).
# LDH release was quantified according to the manufacturer's recommendations (LDH-Glo Cytotoxicity Assay, Promega, Madison, WI). Briefly, basolateral media from each condition was collected in a 96 well plate. The LDH detection reagents were mixed in a 1:1 ratio and applied to each well and incubated for 30 minutes. Luminescence was recorded using a SpectraMax i3x plate reader.
smiles,measurement,setting,value
"[Cl-].[Na+] [NaCl, sodium chloride]",Ad gene transfer,"[1]; 0.9% NaCl (PBS), Ad-GFP MOI=250, apical 2 hours",did not enhance Ad gene transfer
same,"transduction of basal, secretory and ciliated cells","[1]; 1-7% NaCl, Ad-GFP MOI=250",all transduced in a dose dependent manner
same,"Ad-GFP transduction efficiency, comparison of osmolytes","[1]; 3.6% NaCl vs 3.6% NaGluconate, 3.6% KCl, 0.9% NaCl, 0.9% NaCl + mannitol, 2 h, 5 days",greatest increase in transduction efficiency
same,Ad gene transfer,"[1]; Ad-GFP MOI=250 combined 1:1 with reagent, apical 2 hours, LPC 0.1%, EGTA 250 mM, doxorubicin 5 μM, NaCl 3.6%, Infasurf",conferred remarkable transduction
same,co-treatment time giving maximal expression,[1]; Ad-GFP with NaCl 3.6%,2 h
same,% GFP+ cells across pH range,"[1]; NaCl 3.6% adjusted to pH 5, 6, 7, 7.4 and 8, Ad-GFP",no significant differences
same,% GFP+ cells versus length of exposure,"[1]; NaCl 3.6% or Ad-GFP for 5, 15, 30, 60 or 120 min",increased incrementally with increasing temporal exposure
same,Ad transduction efficiency (% GFP+ cells),"[1]; dose response 1-7% NaCl final, Ad-GFP MOI=250",dose dependent increase in transduction efficiency
same,benefit on Ad transduction,[1]; ≤3% NaCl,little benefit on transduction
same,Osmolarity,[2]; 0.9% solution,310 mOsmol/l
same,Osmolarity,[2]; 1% solution,342 mOsmol/l
same,Osmolarity,[2]; 2% solution,684 mOsmol/l
same,Osmolarity,[2]; 3% solution,1027 mOsmol/l
same,unadjusted pH,[2]; 3.6% NaCl in deionized water,~6
same,Osmolarity,[2]; 3.6% solution,1230 mOsmol/l
same,Osmolarity,[2]; 4% solution,1369 mOsmol/l
same,Osmolarity,[2]; 5% solution,1711 mOsmol/l
same,Osmolarity,[2]; 6% solution,2053 mOsmol/l
same,Osmolarity,[2]; 7% solution,2693 mOsmol/l
same,"Cl− secretion (short circuit current and conductance, F&I and GlyH)","[3]; CF HAE, Ad-CFTR (MOI=250) and NaCl 3.6%, apical 2 hours, 5 days",wild-type levels of Cl^− secretion
same,anion channel activity responses to F&I and GlyH,"[3]; CF airway cultures, AAV2.5T-CFTR with NaCl 4.5%, 2 weeks",increased anion channel activity responses
same,CFTR-dependent anion transport,"[3]; primary CF HAE, GP64 HIV-CFTR (MOI=50) in the presence of NaCl 4.5%",restored the CFTR-dependent anion transport
same,luciferase expression (bioluminescence),mouse airways,significantly increased expression in the nose and lung
same,"GFP+ score (0-3, 20 lung regions)","pig airways; Ad-GFP intratracheal, NaCl 5% vs 0.9%, five days",significantly increased
same,transduction of ciliated cells and CK5+ basal cells,"pig airways; Ad-GFP, 5% NaCl",transduction of ciliated cells was observed
same,transduction of submucosal glands,"pig airways; Ad-GFP, 5% NaCl",high levels of transduction
same,transduction of large (>500 μm^2) and small (<500 μm^2) airways,"pig airways; Ad-GFP, 5% NaCl vs 0.9% NaCl",significantly more airway transduction
same,transduction by GP64 HIV-GFP,pig airways; NaCl 5% vs 0.9% NaCl,significantly enhanced transduction
same,"GFP expression, AAV-GFP (AAV2.5T)",[4],significantly higher GFP expression
same,transepithelial electrical resistance (TEER),[5],decreased TEER
same,effects on HAE integrity in vitro,[6]; 5% NaCl formulation,negative effects on HAE integrity
same,LDH release,[6]; highest concentrations of NaCl (5-7%),increased LDH release
same,NaCl doses with ultimate toxicity,[6]; in vitro HAE,> 6%
